These are literature values, as cited in patent US6818658B2, “Acylated piperidine derivatives as melanocortin-4 receptor agonists” (Merck & Co., Inc., priority 2001, dated 2004).

The conditions of data set [1]: injected intramuscularly or subcutaneously, males with psychogenic erectile dysfunction.
The conditions of data set [2]: patients.

On to “Ac-Nle-c[Asp-His-DPhe-Arg-Trp-Lys]-NH2 [MT-II]”, for which, in data set [1], the response rate was 75%.
With `Cc1ccc(N(CC2=NCCN2)c2cccc(O)c2)cc1` [phentolamine], the duration of effect in data set [2] is 2 h. Moreover, in data set [2] (for sildenafil after an oral dose), the onset of action is 5 to 30 min.
